Data: ChEMBL document CHEMBL1201862, “PubChem BioAssay data set” (2004)
Active and inactive are the calls of the source.

Columns and labels:
[1] = biological target: Cytochrome P450 2D6 (Homo sapiens, UniProt P10635);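 further: CYP2D6 member of a cytochrome P450 panel assay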
[2] = biological target: T1, Cytochrome P450 1A2 (Homo sapiens, UniProt P05177);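 further: PubChem cytochrome P450 panel assay, CYP1A2 panel member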
T1 sequence (P05177 whole entry): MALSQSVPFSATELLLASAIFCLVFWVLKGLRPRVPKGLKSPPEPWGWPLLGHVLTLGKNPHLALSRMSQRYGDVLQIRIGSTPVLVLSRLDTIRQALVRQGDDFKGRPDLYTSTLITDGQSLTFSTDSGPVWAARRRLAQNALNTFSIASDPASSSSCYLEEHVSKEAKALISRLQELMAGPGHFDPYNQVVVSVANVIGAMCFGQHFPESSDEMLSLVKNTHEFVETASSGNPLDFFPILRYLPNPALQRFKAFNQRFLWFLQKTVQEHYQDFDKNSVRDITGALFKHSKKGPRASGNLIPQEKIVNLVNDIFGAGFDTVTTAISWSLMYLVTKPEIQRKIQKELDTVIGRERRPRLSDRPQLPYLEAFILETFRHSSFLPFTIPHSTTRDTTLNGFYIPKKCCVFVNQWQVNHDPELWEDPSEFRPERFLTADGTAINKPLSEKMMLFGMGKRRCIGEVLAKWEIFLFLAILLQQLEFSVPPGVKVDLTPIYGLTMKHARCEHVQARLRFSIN

[3] = biological target: Cytochrome P450 3A4 (Homo sapiens, UniProt P08684);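 further: CYP3A4 tested as one member of a cytochrome P450 panel screen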
Chain of Cytochrome P450 3A4 (P08684 whole entry): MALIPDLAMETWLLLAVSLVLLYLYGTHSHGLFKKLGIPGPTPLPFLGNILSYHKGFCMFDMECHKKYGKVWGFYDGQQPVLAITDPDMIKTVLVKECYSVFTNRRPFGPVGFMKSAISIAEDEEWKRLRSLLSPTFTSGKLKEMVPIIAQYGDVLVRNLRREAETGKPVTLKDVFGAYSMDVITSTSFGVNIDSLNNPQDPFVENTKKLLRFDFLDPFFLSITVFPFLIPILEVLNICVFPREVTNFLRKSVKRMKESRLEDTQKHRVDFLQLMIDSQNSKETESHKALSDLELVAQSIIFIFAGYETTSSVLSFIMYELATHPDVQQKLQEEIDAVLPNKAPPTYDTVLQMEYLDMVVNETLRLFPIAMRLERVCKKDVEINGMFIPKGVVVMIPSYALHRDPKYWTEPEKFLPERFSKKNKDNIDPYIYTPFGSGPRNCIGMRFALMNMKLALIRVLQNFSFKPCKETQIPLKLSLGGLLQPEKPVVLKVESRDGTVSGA

[4] = system: Streptococcus sp. 'group A'; test: growth inhibition of control SK(-) GAS strain, dose response, counter-screen for streptokinase expression inhibitor project, luminescence, kanamycin, BacTiterGlo, confirmation (AID 1900); format: functional, organism-based
[5] = biological target: T2, Streptokinase A (Streptococcus pyogenes serotype M1, UniProt P10520); test: S. pyogenes streptokinase expression inhibitors, potency, dose response, plasminogen activation absorbance, OD405 (AID 1914); format: functional, Streptococcus pyogenes M1 GAS;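 further: secreted streptokinase activity via plasminogen activation per viability signal from cell pellet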
T2 sequence (P10520 whole entry): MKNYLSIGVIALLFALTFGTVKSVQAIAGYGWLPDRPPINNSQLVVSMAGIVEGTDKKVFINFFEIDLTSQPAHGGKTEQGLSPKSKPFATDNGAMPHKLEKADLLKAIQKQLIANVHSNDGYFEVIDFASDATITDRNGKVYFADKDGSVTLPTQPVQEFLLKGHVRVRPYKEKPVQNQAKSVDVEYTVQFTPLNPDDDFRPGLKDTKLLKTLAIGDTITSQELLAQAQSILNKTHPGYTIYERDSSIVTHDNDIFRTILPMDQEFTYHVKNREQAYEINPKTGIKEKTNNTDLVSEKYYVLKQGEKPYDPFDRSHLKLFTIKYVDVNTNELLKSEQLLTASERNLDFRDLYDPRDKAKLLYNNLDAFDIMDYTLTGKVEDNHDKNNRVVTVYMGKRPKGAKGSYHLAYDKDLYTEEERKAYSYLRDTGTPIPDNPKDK

[6] = system: Streptococcus; test: Group A Streptococcus viability loss, dose response, counter-screen for streptokinase expression inhibitor project, luminescence, BacTiterGlo (AID 1915); format: functional, organism-based;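 further: potency for reduction of bacterial viability or growth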
[7] = biological target: T3, Rac GTPase-activating protein 1 (Homo sapiens, UniProt Q9H0H5); test: MgcRacGAP GTPase-activating activity inhibitors, confirmation, biochemical, ADP Hunter fluorescence, primary and confirmatory (AID 624330); format: functional
T3 sequence (Q9H0H5 whole entry): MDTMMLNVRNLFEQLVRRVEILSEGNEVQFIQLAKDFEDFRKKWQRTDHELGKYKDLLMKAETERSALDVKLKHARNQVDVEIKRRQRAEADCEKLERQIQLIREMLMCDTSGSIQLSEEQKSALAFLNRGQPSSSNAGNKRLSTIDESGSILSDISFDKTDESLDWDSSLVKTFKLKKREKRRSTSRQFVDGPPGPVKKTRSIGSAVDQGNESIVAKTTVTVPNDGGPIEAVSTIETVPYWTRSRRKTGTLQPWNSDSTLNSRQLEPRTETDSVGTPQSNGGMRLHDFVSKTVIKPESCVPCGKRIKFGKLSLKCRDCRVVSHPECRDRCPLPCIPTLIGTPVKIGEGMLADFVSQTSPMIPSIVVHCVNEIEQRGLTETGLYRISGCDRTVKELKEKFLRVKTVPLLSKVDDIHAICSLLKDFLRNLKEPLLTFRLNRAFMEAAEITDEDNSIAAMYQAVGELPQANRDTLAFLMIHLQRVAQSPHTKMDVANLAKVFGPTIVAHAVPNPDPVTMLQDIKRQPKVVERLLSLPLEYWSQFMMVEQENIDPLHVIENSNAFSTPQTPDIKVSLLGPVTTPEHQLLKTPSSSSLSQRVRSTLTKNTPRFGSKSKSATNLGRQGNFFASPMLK

[8] = biological target: Cytochrome P450 2C19 (Homo sapiens, UniProt P33261); test: Cytochrome panel assay with activity outcomes. Panel member name: p450-cyp2c19 Compounds with AC50 equal or less than 10 uM are considered active; format: functional; settings: read-out: AC50
Chain of Cytochrome P450 2C19 (P33261 whole entry): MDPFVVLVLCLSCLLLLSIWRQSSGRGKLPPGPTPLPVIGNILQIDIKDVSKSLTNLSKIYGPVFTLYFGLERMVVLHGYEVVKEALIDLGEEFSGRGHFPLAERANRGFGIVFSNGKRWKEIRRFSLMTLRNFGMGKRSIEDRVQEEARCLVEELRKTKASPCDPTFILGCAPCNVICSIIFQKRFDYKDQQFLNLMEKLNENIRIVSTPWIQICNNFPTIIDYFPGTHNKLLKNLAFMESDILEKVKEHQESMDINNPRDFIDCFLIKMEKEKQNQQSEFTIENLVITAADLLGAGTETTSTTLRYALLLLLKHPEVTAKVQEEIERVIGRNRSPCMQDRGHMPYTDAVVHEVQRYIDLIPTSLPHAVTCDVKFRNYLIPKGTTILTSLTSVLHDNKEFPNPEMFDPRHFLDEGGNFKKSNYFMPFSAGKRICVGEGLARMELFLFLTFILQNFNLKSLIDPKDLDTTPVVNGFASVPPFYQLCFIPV

Chain of Cytochrome P450 2D6 (P10635 whole entry): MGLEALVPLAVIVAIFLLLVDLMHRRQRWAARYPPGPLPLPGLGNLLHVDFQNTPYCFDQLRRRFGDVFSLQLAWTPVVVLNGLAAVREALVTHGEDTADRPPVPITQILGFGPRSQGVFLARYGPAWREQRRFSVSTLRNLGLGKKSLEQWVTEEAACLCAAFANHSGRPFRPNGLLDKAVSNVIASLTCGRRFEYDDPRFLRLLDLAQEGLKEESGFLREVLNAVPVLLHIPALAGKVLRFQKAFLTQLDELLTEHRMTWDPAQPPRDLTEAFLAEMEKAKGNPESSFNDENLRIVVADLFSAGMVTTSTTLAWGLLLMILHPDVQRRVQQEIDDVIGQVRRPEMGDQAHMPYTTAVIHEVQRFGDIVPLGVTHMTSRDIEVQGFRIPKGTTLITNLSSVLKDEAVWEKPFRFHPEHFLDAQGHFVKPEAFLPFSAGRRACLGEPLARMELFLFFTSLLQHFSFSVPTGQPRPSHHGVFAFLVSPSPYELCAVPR

Row | Compound | AC50 [2] | IC50 [7] | further results
1 | NCCCCNS(=O)(=O)c1ccc2c(Cl)cccc2c1 | 39.8 µM (inconclusive) |  | AC50 [1]: 31.6 µM (inconclusive); AC50 [3]: 25.1 µM (inconclusive)
2 | COc1ccc(CN(C)S(=O)(=O)c2ccc3c(c2)OCCO3)cc1 |  |  | EC50 [4]: > 150 µM (not active); EC50 [5]: > 150 µM (not active); EC50 [6]: > 150 µM (not active)
3 | COC(=O)c1ccccc1NS(=O)(=O)c1ccc2c3c(cccc13)C(=O)N2 | 15.8 µM (inconclusive) |  | AC50 [1]: 28.2 µM (inconclusive); AC50 [3]: 12.6 µM (inconclusive)
4 | CCC/C=C(\CCC)C(NS(=O)(=O)c1cccc2cccnc12)c1ccc(C(=O)OC)cc1 (stereo unspecified) | 6.31 µM (inconclusive) |  | 
5 | COC(=O)[C@H](C)[C@@H]1C[C@@]1(C)[C@@H](NC(=O)OCc1ccccc1)c1ccccc1 | 15.8 µM (inconclusive) |  | 
6 | Fc1ccc(Br)cc1C1C=C(c2ccc(Br)s2)Nc2ncnn21 (stereo unspecified) |  |  | EC50 [4]: 4.65 µM (active); EC50 [5]: > 150 µM (not active); EC50 [6]: 24.3 µM (active)
7 | COc1cc(/C=C/C(=O)OCC(=O)N2CCN(S(=O)(=O)c3ccc(C)cc3C)CC2)ccc1O |  | 88.2 µM (active) | 
8 | CC(C)(C)c1ccc(C(=O)NCc2ccc(Cl)cc2)cc1 | 2 µM (inconclusive) |  | 
9 | CCO[C@H]1O[C@@H]([C@H](COCc2ccccc2)OCc2ccccc2)[C@@H](OCc2ccccc2)[C@H]1O | 12.6 µM (inconclusive) |  | AC50 [8]: 5.01 µM (inconclusive); AC50 [1]: 15.8 µM (inconclusive)
10 | Cc1cc(Cc2cc(C)c(N)cc2N)c(N)cc1N | 2 µM (inconclusive) |  | 
11 | CCOc1cc(CN2CCN(C(=O)CC(C)C)CC2)ccc1OC |  | 155 µM (active) | 
12 | COc1cc(NC(=O)c2ccccc2)c(OC)cc1NC(=O)CN1CCN(c2ccccn2)CC1 | 25.1 µM (inconclusive) |  | AC50 [3]: 12.6 µM (inconclusive)
13 | CCCCN1C(=O)NC(=O)/C(=C(\C)Nc2ccc(OCC)cc2)C1=O |  |  | EC50 [4]: 8.66 µM (active); EC50 [5]: > 150 µM (not active); EC50 [6]: 21.5 µM (active)
14 | O=C(/C=C/c1cccnc1)c1ccc(NC(=O)c2cccc(Br)c2)cc1 | 14.1 µM (inconclusive) |  | AC50 [1]: 2 µM (inconclusive)
15 | COCCn1c(=O)c(-c2ccc(OC)cc2)nc2cnc(Nc3cccc(OC)c3)nc21 | 10 µM (inconclusive) |  | AC50 [3]: 5.01 µM (inconclusive)
16 | CC1Cc2ccccc2N1C(=O)CNCCCN(C)C (stereo unspecified) |  | 76.9 µM (active) | 
17 | O=[N+]([O-])c1cc([N+](=O)[O-])c2nonc2c1Nc1ccccc1O |  | 76.9 µM (active) | 
18 | Cn1nc(C(F)(F)F)c(C(=O)Nc2ccc(F)cc2F)c1Sc1cccc(C(F)(F)F)c1 | 15.8 µM (inconclusive) |  | AC50 [1]: 20 µM (inconclusive)
19 | COc1ccc(NC2CCCN(C(=O)CCN3CCCC3=O)C2)cc1OC (stereo unspecified) |  | 293 µM (active) | 
20 | COC(=O)[C@@]1(Cc2ccc(F)cc2)[C@H]2c3cc(C(=O)N4CCCC4)n(Cc4ccc(S(C)(=O)=O)cc4)c3C[C@H]2CN1C(=O)c1ccccc1 | 15.8 µM (inconclusive) |  | AC50 [3]: 1.26 µM (inconclusive)
21 | Nc1ccc2c(c1Br)Cc1ccccc1-2 |  | 43.8 µM (active) | 
22 | COC(=O)C1C(O)=C(/C=N/c2ccc(N)cc2)C(=O)CC1(C)C (stereo unspecified) |  | 40 µM (active) | 
23 | O=C(CSc1ccc2ccccc2n1)N/N=C/c1ccc(O)cc1 |  | 73.2 µM (active) | 
24 | CC(=O)Nc1nnc(S)s1 |  | 66.2 µM (active) | 
